Tests used:
Type in all cases: cell-based, human
[1] = system: p38; assay: Western blotting of phosphorylated p38 in LPS-stimulated monocytes; conditions: 300 μM, 0.1 μg/ml LPS for 1 h
Experimental: Monocytes from healthy donors were incubated at 37° C. for 20 min without or with 300 μM GroPIns or GroPIns4P, and for an additional 1 h in the absence and presence of 0.1 μg/ml LPS from E. coli. Resentative Western blots are shown, as resolved using 10% SDS-PAGE, showing phosphorylated (p-) and total levels of p38 and ERK1/2. All of the blots were representative of at least three independent experiments.
Protein extracts were analysed by Western blotting by the following procedures. The nitrocellulose filters containing the proteins of interest were incubated in the blocking solution for Western blotting plus 3% bovine serum albumin (BSA) or 5% milk powder (Fluka, Switzerland) for 1 h at room temperature, and then with the primary antibody diluted to its working concentration (see Table 2) in the blocking solution for Western blotting (plus BSA or milk powder). After a 2-4 h incubation at room temperature, or an overnight (O/N) incubation at 4° C., the antibody was removed and the strips were washed twice in Tween®/Tris-buffered salt solution (TTBS), for 15 min each. […] After washing the strips were incubated with the enhanced luminescence (ECL) reagents (Amersham Pharmacia Biotech, NJ, USA), according to the manufacturer instructions, and protein signals were detect by autoradiography using Kodak film.

[2] = system: LPS-mediated gene transcription of IL-1β; assay: Real-time RT-PCR of IL-1β mRNA in LPS-stimulated monocytes; conditions: 300 μM, 0.1 μg/ml LPS for 1.5 h or 24 h
Experimental: (§1) FIG. 4—The glycerophosphoinositols inhibit LPS-mediated gene transcription of TNFα, IL-1β and COX-2. Human monocytes were purified from peripheral blood and incubated at 37° C. for 20 min without or with 300 μM GroPIns or GroPIns4P, and for an additional 1.5 h or 24 h in the absence and presence of 0.1 μg/ml LPS from E. coli. At each time point, RNA was extracted and converted to cDNA for real-time PCR analysis of TNFα, IL-1β and COX-2. Each sample was measured in triplicate and the data were calculated using the delta-delta method (2-DDCT). Transcription of the house-keeping gene GAPDH was used to normalise the data. Measurements of mRNA levels were expressed as fold-increase over the respective control (unstimulated) cells, and are means (±SD) of triplicates from one representative experiment of 4 experiments performed with cells from different donors. Asterisks indicate statistically significant differences (*p<0.0485; **p<0.0092).
(§2) One μg total RNA (extracted through thiocyanate/caesium chloride method) was converted to cDNA using Moloney murine leukaemia virus reverse transcriptase (Applied Biosystems, Italy). […] Each sample was measured in triplicate and the data were analysed with the SDS 2.0 software (Applied Biosystems, Italy) by the delta-delta method (2-DDCT) for comparing relative expression results. […]

[3] = system: LPS-mediated gene transcription of TNFα; assay: Real-time RT-PCR of TNFα mRNA in LPS-stimulated monocytes; conditions: 300 μM, 0.1 μg/ml LPS for 1.5 h or 24 h
Experimental: as §1, §2

[4] = system: LPS-mediated gene transcription of COX-2; assay: Real-time RT-PCR of COX-2 mRNA in LPS-stimulated monocytes; conditions: 300 μM, 0.1 μg/ml LPS for 1.5 h or 24 h
Experimental: as §1, §2

[5] = system: LPS-stimulated nuclear translocation of NF-κB; assay: Electromobility shift assay of nuclear NF-κB in LPS-stimulated monocytes; conditions: 50 μM, 0.1 μg/ml LPS for 1 h
Experimental: FIG. 7—Glycerophosphoinositols inhibit LPS-stimulated nuclear translocation of NF-κB. Human monocytes purified from the peripheral blood of healthy donors were incubated at 37° C. for 20 min without (−) or with (+) two different concentrations (300 μM and 50 μM) of GroPIns or GroPIns4P, and then for further 1 h in the absence (−) and presence (+) of 0.1 μg/ml LPS from E. coli. At the end of the incubation, the cells were lysed and the nuclear extracts were incubated with radiolabelled oligonucleotide probes that contained the NF-κB binding site. Protein-DNA complexes were separated using 6% non-denaturating acrylamide gels and visualised by autoradiography. The results shown are representative of 4 different experiments performed with cells from different donors.
Cells were harvested by centrifugation at 300×g for 5 min and lysed in ice-cold cell lysis buffer using an Ultraturrax homogeniser (Janke & Kunke, Germany, 4 strokes of 20 s each, at medium speed). The cell nuclei were pelleted by centrifugation (800×g, 5 min, at 4° C.) and recovered. […] After centrifugation (4000×g, for 10 min, at 4° C.), the supernatant was recovered and the protein concentrations in the nuclear extracts were determined using a commercially available protein assay kit (Bio-Rad Laboratories, UK). […]

| SMILES | phosphorylation level of p38 [1] | effect on LPS-induced IL-1β mRNA expression [2] | effect on LPS-induced TNFα mRNA expression [3] | effect on LPS-induced COX-2 mRNA expression [4] | reduction of NF-κB nuclear translocation [5] |
| --- | --- | --- | --- | --- | --- |
| O=P(O)(OCC(O)CO)OC1C(O)C(O)C(O)C(O)C1O (stereo not shown) [GroPIns, glycerophosphoinositol] | did not affect the phosphorylation levels | inhibited the effects of LPS on expression of all of the genes analysed | inhibited the effects of LPS on expression of all of the genes analysed | inhibited the effects of LPS on expression of all of the genes analysed | not at 50 μM |
| O=P(O)(O)OC1[C@@H](O)[C@H](O)C(OP(=O)(O)OCC(O)CO)[C@@H](O)[C@H]1O (stereo partly shown) [GroPIns4P, glycerophosphoinositol 4-phosphate] | did not affect the phosphorylation levels | inhibited the effects of LPS on expression of all of the genes analysed | inhibited the effects of LPS on expression of all of the genes analysed | inhibited the effects of LPS on expression of all of the genes analysed | not at 50 μM |

Reference: patent publication US9351983B2, “Use of glycerophosphoinositols for the treatment of septic shock” (CONSIGLIO NAZIONALE DELLE RICERCHE, priority 2012, dated 2016)
